In assay [1] the test system is Plasmodium falciparum. The class given is functional, organism-based. Conditions: 552 h.
In assay [2] the test system is Plasmodium falciparum. The assay is described as follows: microbe, parasite or virus in culture.
Description: Antiplasmodial activity against Plasmodium falciparum harboring K1 allele group of msp1, 3D7 allele group of msp2 gene and 94 bp of 7A11, 196bp of C4M79 and 336bp of C4M69 locus measured on day 23 by [3H]hypoxanthine incorporation assay

SMILES strings stand for the structures.

In assay [1], `O=C1C(O)=C([C@H]2CC[C@H](c3ccc(Cl)cc3)CC2)C(=O)c2ccccc21` [ATOVAQUONE] showed an IC50 of 390 nM. In turn, `CC1(C)N=C(N)N=C(N)N1c1ccc(Cl)cc1` [CYCLOGUANIL] yielded an IC50 in assay [2] of 250 nM. `CCNCc1cc(Nc2ccnc3cc(Cl)ccc23)ccc1O` [DESETHYL AMODIAQUINE]: the 50% inhibitory concentration (IC50) in assay [2] was determined as 30.5 nM. In assay [2], `CCCCN(CCCC)CC(O)c1cc(Cl)cc2c1-c1ccc(Cl)cc1/C2=C/c1ccc(Cl)cc1` (stereo unspecified) [LUMEFANTRINE] displayed a half-inhibitory concentration (IC50) of 15.2 nM. In turn, `OC(c1cc(C(F)(F)F)nc2c(C(F)(F)F)cccc12)C1CCCCN1` (stereo unspecified) [MEFLOQUINE] gave an IC50 in assay [2] of 34.1 nM. For `CCc1nc(N)nc(N)c1-c1ccc(Cl)cc1` [PYRIMETHAMINE], half-maximal inhibition in assay [2] (IC50) was put at 2510 nM.

In general, IC50 refers to the concentration that gives 50% inhibition.

Values taken from ChEMBL document CHEMBL1275428, “First case of emergence of atovaquone-proguanil resistance in Plasmodium falciparum during treatment in a traveler in Comoros” (Antimicrob Agents Chemother, 2008).
